Experimental data reported in US20210289787A1, “HERBICIDAL MIXTURES COMPRISING ISOXAFLUTOLE, TRIFLUDIMOXAZIN AND AN IMIDAZOLINONE HERBICIDE; AND THEIR USE IN SOYBEAN AND COTTON CULTURES” (BASF SE, priority 2018, published 2021).

Tested on: SETVI (Setaria viridis, Green foxtail)
Test: post-emergence greenhouse experiment, herbicidal action (synergism by Colby)
Assay type: in vivo

SMILES: CS(=O)(=O)c1cc(C(F)(F)F)ccc1C(=O)c1cnoc1C1CC1 [Isoxaflutole, isoxaflutole]
- Herbicidal action against SETVI, Found (growth stage 13 (6 to 10 cm), scale 0 to 100, test period 20 days, isoxaflutole 25 g/ha alone): 20
- Herbicidal action against SETVI, Found (growth stage 13, scale 0 to 100, 20 days, isoxaflutole 12.5 g/ha alone): 20
